Data taken from patent US20180036289A1 (Gilead Sciences, Inc., priority 2016, published 2018).

Experiments:
Assay in all cases: Cell proliferation assay (ATPlite), drug with vs without cobicistat
Type in all cases: cell-based
786-O = 786-O cell line; 120 hours incubation
Experimental: (§1) All cell lines were obtained from the American Type Culture Collection (ATCC) Manassas, Va. (US). Master and working cell banks (MCB and WCB) were prepared by subculturing in ATCC-recommended media and freezing protocols (www.atcc.org). Cell line stocks for the assays were prepared from the WCB. The MCB, WCBs and assay stocks were prepared within respectively 3, 6 and 9 passages of the ATCC vial.
(§2) Solid powders of reference compounds were weighed on a calibrated balance and dissolved in 100% DMSO. DMSO samples were stored at room temperature. At the day of the experiment, the compound stock was diluted in 3.16 fold steps in 100% DMSO to obtain a 9-point dilution series. This was further diluted 31.6 times in 20 mM sterile Hepes buffer pH 7.4. A volume of 5 μl was transferred to the cells to generate a test concentration range from 3.16×10^−5M to 3.16×10^−9 M in duplicate. The final DMSO concentration during incubation was […] in all wells.
(§3) An assay stock was thawed and diluted in its ATCC recommended medium and dispensed in a 384-well plate, depending on the cell line used, at a concentration of 200-3200 cells per well in 45 μl medium. For each used cell line the optimal cell density is used. The margins of the plate were filled with phosphate-buffered saline. Plated cells were incubated in a humidified atmosphere of 5% CO2 at 37° C. After 24 hours, 5 μl of compound dilution was added and plates were further incubated for another 120 hours. After 120 hours, 25 μl of ATPlite 1Step™ (PerkinElmer) solution was added to each well, and subsequently shaken for 2 minutes. After 10 minutes of incubation in the dark, the luminescence was recorded on an Envision multimode reader (PerkinElmer).
(§4) IC50s were calculated by non-linear regression using IDBS XLfit 5. The percentage growth after 120 h (%-growth) was calculated as follows: 100%×(luminescencet=120h/luminescenceuntreated,t=120h). This was fitted to the ^10log compound concentration (conc) by a 4-parameter logistics curve: %−growth=bottom+(top−bottom)/(1+10^(log IC50-conc)*hill)), where hill is the Hill-coefficient, and bottom and top the asymptotic minimum and maximum cell growth that the compound allows in that assay.

SNU-C2B = SNU-C2B cell line; 120 hours incubation
Experimental: as §1, §2, §3, §4

A-172 = A-172 cell line; 120 hours incubation
Experimental: as §1, §2, §3, §4

DoTc2 4510 = DoTc2 4510 cell line; 120 hours incubation
Experimental: as §1, §2, §3, §4

LNCaP FGC = LNCaP FGC cell line; 120 hours incubation
Experimental: as §1, §2, §3, §4

PA-1 = PA-1 cell line; 120 hours incubation
Experimental: as §1, §2, §3, §4

OVCAR-3 = OVCAR-3 cell line; 120 hours incubation
Experimental: as §1, §2, §3, §4

Hs 578T = Hs 578T cell line; 120 hours incubation
Experimental: as §1, §2, §3, §4

A-498 = A-498 cell line; 120 hours incubation
Experimental: as §1, §2, §3, §4

FaDu = FaDu cell line; 120 hours incubation
Experimental: as §1, §2, §3, §4

COLO 205 = COLO 205 cell line; 120 hours incubation
Experimental: as §1, §2, §3, §4

A-427 = A-427 cell line; 120 hours incubation
Experimental: as §1, §2, §3, §4

Daoy = Daoy cell line; 120 hours incubation
Experimental: as §1, §2, §3, §4

A-204 = A-204 cell line; 120 hours incubation
Experimental: as §1, §2, §3, §4

ACHN = ACHN cell line; 120 hours incubation
Experimental: as §1, §2, §3, §4

U-87 MG = U-87 MG cell line; 120 hours incubation
Experimental: as §1, §2, §3, §4

U-2 OS = U-2 OS cell line; 120 hours incubation
Experimental: as §1, §2, §3, §4

MG-63 = MG-63 cell line; 120 hours incubation
Experimental: as §1, §2, §3, §4

C-33 A = C-33 A cell line; 120 hours incubation
Experimental: as §1, §2, §3, §4

SK-N-FI = SK-N-FI cell line; 120 hours incubation
Experimental: as §1, §2, §3, §4

SW48 = SW48 cell line; 120 hours incubation
Experimental: as §1, §2, §3, §4

A388 = A388 cell line; 120 hours incubation
Experimental: as §1, §2, §3, §4

VA-ES-BJ = VA-ES-BJ cell line; 120 hours incubation
Experimental: as §1, §2, §3, §4

A375 = A375 cell line; 120 hours incubation
Experimental: as §1, §2, §3, §4

MeWo = MeWo cell line; 120 hours incubation
Experimental: as §1, §2, §3, §4

MIA PaCa-2 = MIA PaCa-2 cell line; 120 hours incubation
Experimental: as §1, §2, §3, §4

SUP-T1 = SUP-T1 cell line; 120 hours incubation
Experimental: as §1, §2, §3, §4

SW480 = SW480 cell line; 120 hours incubation
Experimental: as §1, §2, §3, §4

T98G = T98G cell line; 120 hours incubation
Experimental: as §1, §2, §3, §4

HCT-15 = HCT-15 cell line; 120 hours incubation
Experimental: as §1, §2, §3, §4

Cc1nc(Nc2ncc(C(=O)Nc3c(C)cccc3Cl)s2)cc(N2CCN(CCO)CC2)n1 [dasatinib]
Fold change in IC50 (IC50 [Drug + Cobicistat]/IC50 [Drug]) (786-O): 1.6 fold
Fold change in IC50 (IC50 [Drug + Cobicistat]/IC50 [Drug]) (SNU-C2B): 0.9 fold
Fold change in IC50 (IC50 [Drug + Cobicistat]/IC50 [Drug]) (A-172): 1.7 fold
Fold change in IC50 (IC50 [Drug + Cobicistat]/IC50 [Drug]) (DoTc2 4510): 3.0 fold
Fold change in IC50 (IC50 [Drug + Cobicistat]/IC50 [Drug]) (LNCaP FGC): 1.3 fold
Fold change in IC50 (IC50 [Drug + Cobicistat]/IC50 [Drug]) (PA-1): 2.6 fold
Fold change in IC50 (IC50 [Drug + Cobicistat]/IC50 [Drug]) (OVCAR-3): 1.6 fold
Fold change in IC50 (IC50 [Drug + Cobicistat]/IC50 [Drug]) (Hs 578T): 2.5 fold
Fold change in IC50 (IC50 [Drug + Cobicistat]/IC50 [Drug]) (A-498): 1.4 fold
Fold change in IC50 (IC50 [Drug + Cobicistat]/IC50 [Drug]) (FaDu): 2.1 fold
Fold change in IC50 (IC50 [Drug + Cobicistat]/IC50 [Drug]) (COLO 205): 1.2 fold
Fold change in IC50 (IC50 [Drug + Cobicistat]/IC50 [Drug]) (A-427): 5.8 fold
Fold change in IC50 (IC50 [Drug + Cobicistat]/IC50 [Drug]) (Daoy): 3.2 fold
Fold change in IC50 (IC50 [Drug + Cobicistat]/IC50 [Drug]) (A-204): 2.2 fold
Fold change in IC50 (IC50 [Drug + Cobicistat]/IC50 [Drug]) (ACHN): 2.8 fold
Fold change in IC50 (IC50 [Drug + Cobicistat]/IC50 [Drug]) (U-87 MG): 1.1 fold
Fold change in IC50 (IC50 [Drug + Cobicistat]/IC50 [Drug]) (U-2 OS): 4.0 fold
Fold change in IC50 (IC50 [Drug + Cobicistat]/IC50 [Drug]) (MG-63): 2.9 fold
Fold change in IC50 (IC50 [Drug + Cobicistat]/IC50 [Drug]) (C-33 A): 1.2 fold
Fold change in IC50 (IC50 [Drug + Cobicistat]/IC50 [Drug]) (SK-N-FI): 2.0 fold
Fold change in IC50 (IC50 [Drug + Cobicistat]/IC50 [Drug]) (SW48): 2.2 fold
Fold change in IC50 (IC50 [Drug + Cobicistat]/IC50 [Drug]) (A388): 1.9 fold
Fold change in IC50 (IC50 [Drug + Cobicistat]/IC50 [Drug]) (VA-ES-BJ): 3.1 fold
Fold change in IC50 (IC50 [Drug + Cobicistat]/IC50 [Drug]) (A375): 1.3 fold
Fold change in IC50 (IC50 [Drug + Cobicistat]/IC50 [Drug]) (MeWo): 1.0 fold
Fold change in IC50 (IC50 [Drug + Cobicistat]/IC50 [Drug]) (MIA PaCa-2): 2.2 fold
Fold change in IC50 (IC50 [Drug + Cobicistat]/IC50 [Drug]) (SUP-T1): 1.4 fold
Fold change in IC50 (IC50 [Drug + Cobicistat]/IC50 [Drug]) (SW480): 1.0 fold
Fold change in IC50 (IC50 [Drug + Cobicistat]/IC50 [Drug]) (T98G): 2.3 fold
Fold change in IC50 (IC50 [Drug + Cobicistat]/IC50 [Drug]) (HCT-15): 2.6 fold

CC(=O)O[C@@]12CO[C@@H]1C[C@H](O)[C@@]1(C)C(=O)[C@H](O)C3=C(C)[C@@H](OC(=O)[C@H](O)[C@@H](NC(=O)OC(C)(C)C)c4ccccc4)C[C@@](O)([C@@H](OC(=O)c4ccccc4)[C@H]21)C3(C)C [docetaxel]
Fold change in IC50 (IC50 [Drug + Cobicistat]/IC50 [Drug]) (786-O): 4.2 fold
Fold change in IC50 (IC50 [Drug + Cobicistat]/IC50 [Drug]) (SNU-C2B): 4.8 fold
Fold change in IC50 (IC50 [Drug + Cobicistat]/IC50 [Drug]) (A-172): 2.0 fold
Fold change in IC50 (IC50 [Drug + Cobicistat]/IC50 [Drug]) (DoTc2 4510): 5.3 fold
Fold change in IC50 (IC50 [Drug + Cobicistat]/IC50 [Drug]) (LNCaP FGC): 3.8 fold
Fold change in IC50 (IC50 [Drug + Cobicistat]/IC50 [Drug]) (PA-1): 5.2 fold
Fold change in IC50 (IC50 [Drug + Cobicistat]/IC50 [Drug]) (OVCAR-3): 2.2 fold
Fold change in IC50 (IC50 [Drug + Cobicistat]/IC50 [Drug]) (Hs 578T): 1.9 fold
Fold change in IC50 (IC50 [Drug + Cobicistat]/IC50 [Drug]) (A-498): 4.2 fold
Fold change in IC50 (IC50 [Drug + Cobicistat]/IC50 [Drug]) (FaDu): 1.7 fold
Fold change in IC50 (IC50 [Drug + Cobicistat]/IC50 [Drug]) (COLO 205): 3.9 fold
Fold change in IC50 (IC50 [Drug + Cobicistat]/IC50 [Drug]) (A-427): 1.3 fold
Fold change in IC50 (IC50 [Drug + Cobicistat]/IC50 [Drug]) (Daoy): 6.4 fold
Fold change in IC50 (IC50 [Drug + Cobicistat]/IC50 [Drug]) (A-204): 5.7 fold
Fold change in IC50 (IC50 [Drug + Cobicistat]/IC50 [Drug]) (ACHN): 4.6 fold
Fold change in IC50 (IC50 [Drug + Cobicistat]/IC50 [Drug]) (U-87 MG): 2.0 fold
Fold change in IC50 (IC50 [Drug + Cobicistat]/IC50 [Drug]) (U-2 OS): 4.3 fold
Fold change in IC50 (IC50 [Drug + Cobicistat]/IC50 [Drug]) (MG-63): 3.3 fold
Fold change in IC50 (IC50 [Drug + Cobicistat]/IC50 [Drug]) (C-33 A): 1.5 fold
Fold change in IC50 (IC50 [Drug + Cobicistat]/IC50 [Drug]) (SK-N-FI): 5.1 fold
Fold change in IC50 (IC50 [Drug + Cobicistat]/IC50 [Drug]) (SW48): 1.6 fold
Fold change in IC50 (IC50 [Drug + Cobicistat]/IC50 [Drug]) (A388): 6.0 fold
Fold change in IC50 (IC50 [Drug + Cobicistat]/IC50 [Drug]) (VA-ES-BJ): 5.0 fold
Fold change in IC50 (IC50 [Drug + Cobicistat]/IC50 [Drug]) (A375): 2.8 fold
Fold change in IC50 (IC50 [Drug + Cobicistat]/IC50 [Drug]) (MeWo): 2.3 fold
Fold change in IC50 (IC50 [Drug + Cobicistat]/IC50 [Drug]) (MIA PaCa-2): 4.2 fold
Fold change in IC50 (IC50 [Drug + Cobicistat]/IC50 [Drug]) (SUP-T1): 4.5 fold
Fold change in IC50 (IC50 [Drug + Cobicistat]/IC50 [Drug]) (SW480): 2.3 fold
Fold change in IC50 (IC50 [Drug + Cobicistat]/IC50 [Drug]) (T98G): 7.7 fold
Fold change in IC50 (IC50 [Drug + Cobicistat]/IC50 [Drug]) (HCT-15): 2.8 fold
